According to patent US6723726B1 (SmithKline Beecham Corporation, priority 1996, dated 2004):
Structures can show the parent of a compound that is named as a salt. Where two headings read alike, the source gives them in different places.

Tests used:
[1] = target: T1, EGFr isolated from solubilised A431 cell membranes (Homo sapiens, UniProt P00533); test: Substrate phosphorylation assay, EGFr; format: biochemical; settings: ATP and peptide at Km, 30 min, room temperature
T1 construct: EGFr isolated from solubilised A431 cell membranes; endogenous in cells; host or cells: A431 cell membranes (solubilised)
Experimental: (§1) The substrate phosphorylation assays use baculovirus expressed, recombinant constructs of the intracellular domains of c-erbB-2 and c-erbB-4 that are constitutively active and EGFr isolated from solubilised A431 cell membranes. The method measures the ability of the isolated enzymes to catalyse the transfer of the γ-phosphate from ATP onto tyrosine residues in a biotinylated synthetic peptide (Biotin-[…]. […] The reaction is stopped by the addition of EDTA (final concentration 0.15 mM) and a sample is transferred to a streptavidin-coated 96-well plate. The plate is washed and level of phosphotyrosine on the peptide is determined using a Europium-labelled antiphosphotyrosine antibody and quantified with a time-resolved fluorescence technique.

[2] = target: T2, c-erbB-2 (baculovirus expressed recombinant intracellular domain) (Homo sapiens, UniProt P04626); test: Substrate phosphorylation assay, c-erbB-2; format: biochemical; settings: ATP and peptide at Km, 30 min, room temperature
T2 construct: baculovirus expressed, recombinant constructs of the intracellular domains of c-erbB-2 and c-erbB-4 that are constitutively active; made in house
Experimental: as §1

[3] = target: T3, c-erbB-4 (baculovirus expressed recombinant intracellular domain) (Homo sapiens, UniProt Q15303); test: Substrate phosphorylation assay, c-erbB-4; format: biochemical; settings: ATP and peptide at Km, 30 min, room temperature
T3 construct: baculovirus expressed, recombinant constructs of the intracellular domains of c-erbB-2 and c-erbB-4 that are constitutively active; made in house
Experimental: as §1

[4] = test system: HB4a erbB-2 cells; test: Cell proliferation assay, HB4a transformed by over-expression of c-erbB-2; format: cell-based, human; settings: read-out: Cell Proliferation HB4a erbB-2 IC50
Experimental: (§2) The cell proliferation assay uses an immortalised human breast epithelial cell line (HB4a) which has been transformed by over-expression of c-erbB-2. Growth of these cells in low serum is dependent upon the c-erbB-2 tyrosine kinase activity. The specificity of the effect of the test compounds on tyrosine kinase dependent growth over general toxicity is assessed by comparison to an HB4a cell line which has been transfected with ras. Cells are plated at 3000/well in 96-well plates in 0.1 ml medium and allowed to attach overnight, test compound is added in 0.1 ml medium, with a final concentration of 0.5% DMSO, and the plates incubated for 4 days at 37° C. The cells are then examined microscopically for evidence of morphological detransformation and cell mass is estimated by staining with methylene blue and measuring the absorbance at 620 nm. The results are shown in Table 1 below as the IC50 values in nM. Activity against a range of naturally occurring EGFr or c-erbB-2 over-expressing human tumour cell lines (BT474-breast, HN5-head and neck, N87-gastric and Calu3-lung) is assessed with selected compounds by the same methodology. The results are also shown in Table 1 below as the IC50 values in nM.

[5] = test system: HB4a ras cells; test: Cell proliferation assay, HB4a transfected with ras (general toxicity comparison); format: cell-based, human; settings: read-out: Cell Proliferation HB4a ras IC50
Experimental: as §2

[6] = test system: BT474 cells; test: Cell proliferation assay, BT474 breast tumour cell line; format: cell-based, human; settings: 4 days, methylene blue staining, read-out: Cell Proliferation BT474 IC50
Experimental: as §2

[7] = test system: HN5 cells; test: Cell proliferation assay, HN5 head and neck tumour cell line; format: cell-based; settings: Homo sapiens, HN5, 96 h; 4 days, methylene blue staining; read-out: Cell Proliferation HN5 IC50
Experimental: as §2

[8] = test system: Calu3 cells; test: Cell proliferation assay, Calu3 lung tumour cell line; format: cell-based, human; settings: 4 days, methylene blue staining, read-out: Cell Proliferation Calu3 IC50
Experimental: as §2

[9] = Homo sapiens, HB4a, 96 h, 4 days, methylene blue staining
[10] = 4 days, methylene blue staining

T2 sequence (P04626 676-1255 limits assumed): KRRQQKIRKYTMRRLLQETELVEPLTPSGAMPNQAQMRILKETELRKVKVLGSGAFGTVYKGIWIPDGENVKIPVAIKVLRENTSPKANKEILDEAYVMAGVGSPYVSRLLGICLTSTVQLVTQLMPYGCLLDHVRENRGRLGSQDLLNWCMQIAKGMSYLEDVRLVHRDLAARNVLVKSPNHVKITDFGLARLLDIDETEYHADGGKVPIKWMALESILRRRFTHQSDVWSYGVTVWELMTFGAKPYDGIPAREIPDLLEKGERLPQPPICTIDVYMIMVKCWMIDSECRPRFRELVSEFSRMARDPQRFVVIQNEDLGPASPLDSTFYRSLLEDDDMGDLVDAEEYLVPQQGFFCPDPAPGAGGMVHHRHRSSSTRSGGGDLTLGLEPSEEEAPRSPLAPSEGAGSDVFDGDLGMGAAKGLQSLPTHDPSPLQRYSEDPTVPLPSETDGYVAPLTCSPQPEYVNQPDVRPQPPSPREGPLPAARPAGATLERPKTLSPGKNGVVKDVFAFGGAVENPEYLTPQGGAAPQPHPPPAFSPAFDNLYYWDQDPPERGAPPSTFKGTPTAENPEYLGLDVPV
T3 sequence (Q15303 676-1308 limits assumed): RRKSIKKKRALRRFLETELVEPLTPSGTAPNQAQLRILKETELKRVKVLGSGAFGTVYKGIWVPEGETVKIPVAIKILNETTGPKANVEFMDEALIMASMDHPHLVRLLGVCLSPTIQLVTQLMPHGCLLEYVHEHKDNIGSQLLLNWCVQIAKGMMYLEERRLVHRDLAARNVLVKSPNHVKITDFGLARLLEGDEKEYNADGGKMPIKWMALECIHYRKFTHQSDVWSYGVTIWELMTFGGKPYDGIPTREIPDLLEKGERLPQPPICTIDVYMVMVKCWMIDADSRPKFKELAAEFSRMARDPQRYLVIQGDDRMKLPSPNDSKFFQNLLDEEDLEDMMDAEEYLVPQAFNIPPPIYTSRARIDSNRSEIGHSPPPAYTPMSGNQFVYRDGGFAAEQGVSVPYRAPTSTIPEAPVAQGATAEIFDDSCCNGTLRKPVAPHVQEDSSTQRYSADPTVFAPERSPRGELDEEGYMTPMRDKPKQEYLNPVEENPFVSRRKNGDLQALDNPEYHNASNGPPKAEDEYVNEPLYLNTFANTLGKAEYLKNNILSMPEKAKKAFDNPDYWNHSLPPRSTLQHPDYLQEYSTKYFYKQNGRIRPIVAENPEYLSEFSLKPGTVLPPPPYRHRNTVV
T1 sequence (P00533 25-1210): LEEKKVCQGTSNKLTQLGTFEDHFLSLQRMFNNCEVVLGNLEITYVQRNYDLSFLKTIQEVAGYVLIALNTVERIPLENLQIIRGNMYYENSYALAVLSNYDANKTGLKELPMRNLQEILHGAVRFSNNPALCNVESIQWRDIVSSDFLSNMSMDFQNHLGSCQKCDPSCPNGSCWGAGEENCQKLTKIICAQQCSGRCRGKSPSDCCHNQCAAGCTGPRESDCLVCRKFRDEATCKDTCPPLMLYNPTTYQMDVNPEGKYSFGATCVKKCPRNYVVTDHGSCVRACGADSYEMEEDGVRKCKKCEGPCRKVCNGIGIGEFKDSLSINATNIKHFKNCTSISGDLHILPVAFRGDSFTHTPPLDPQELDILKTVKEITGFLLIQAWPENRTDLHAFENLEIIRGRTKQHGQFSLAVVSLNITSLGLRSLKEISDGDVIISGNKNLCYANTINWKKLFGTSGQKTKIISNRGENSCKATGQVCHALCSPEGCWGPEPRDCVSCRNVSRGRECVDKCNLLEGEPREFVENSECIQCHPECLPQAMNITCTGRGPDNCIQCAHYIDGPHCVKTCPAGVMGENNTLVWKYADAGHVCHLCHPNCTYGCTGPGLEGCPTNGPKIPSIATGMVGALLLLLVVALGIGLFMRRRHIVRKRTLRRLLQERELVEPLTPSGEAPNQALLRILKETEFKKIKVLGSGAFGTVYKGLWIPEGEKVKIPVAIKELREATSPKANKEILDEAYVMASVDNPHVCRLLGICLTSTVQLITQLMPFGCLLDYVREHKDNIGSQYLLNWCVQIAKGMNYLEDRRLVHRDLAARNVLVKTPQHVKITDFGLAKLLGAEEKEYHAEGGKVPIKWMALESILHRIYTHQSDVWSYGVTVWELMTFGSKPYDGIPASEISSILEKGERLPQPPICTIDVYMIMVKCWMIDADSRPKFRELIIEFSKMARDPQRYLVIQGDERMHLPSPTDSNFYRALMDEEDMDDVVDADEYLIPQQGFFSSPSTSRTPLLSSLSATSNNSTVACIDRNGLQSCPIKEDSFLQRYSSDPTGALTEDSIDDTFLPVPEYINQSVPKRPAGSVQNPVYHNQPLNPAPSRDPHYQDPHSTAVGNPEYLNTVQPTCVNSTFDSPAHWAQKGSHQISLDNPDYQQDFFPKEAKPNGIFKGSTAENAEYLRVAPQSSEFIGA

SMILES | IC50 [1] | IC50 [2] | IC50 [3] | IC50 [4, 9] | IC50 [5, 9] | further results
CN(C)c1cc2c(Nc3ccc4c(cnn4Cc4ccc(O)cc4)c3)ncnc2cn1 [Example 38, N4-[1-(4-Hydroxybenzyl)-1H-indazol-5-yl)-N6,N6-dimethyl-pyrido[3,4-d]pyrimidine-4,6-diamine] | 930 nM | 330 nM | 1900 nM | 6900 nM | 50000 nM | 
CS(=O)(=O)CCNC(=O)c1ccc(-c2cc3c(Nc4ccc5c(cnn5Cc5ccccc5)c4)ncnc3cn2)o1 [Example 36, 5-[4-(1-benzyl-1H-indazol-5-ylamino)-pyrido-[3,4-d]pyrimidin-6-yl]-furan-2-carboxylic Acid 2-methanesulphonyl-ethylamide Hydrochloride] | 1600 nM |  |  | 3100 nM | > 50000 nM | 
c1ccc(Cn2ncc3cc(Nc4ncnc5cnc(-n6nccn6)cc45)ccc32)cc1 [Example 22] | 22 nM |  |  |  |  | IC50 [4, 10]: 1700 nM; IC50 [5, 10]: 18000 nM
c1ccc(COc2cc3c(Nc4ccc5c(cnn5Cc5ccccc5)c4)ncnc3cn2)cc1 [Example 33, (1-Benzyl-1H-indazolyl-5-yl)-(6-benzyloxy-pyrido[3,4-d]pyrimidin-4-yl)-amine Hydrochloride] | 1900 nM | 140 nM | 2700 nM | > 50000 nM | 50000 nM | 
CN(C)c1cc2c(Nc3ccc4c(cnn4Cc4ccc(F)cc4)c3)ncnc2cn1 [Example 17, N4-(4-Fluoro-benzyl)-1H-indazol-5-yl)-N6,N6-dimethyl-pyrido[3,4-d]pyrimidine-4,6-diamine Hydrochloride] |  | 250 nM |  |  |  | IC50 [4, 10]: 490 nM; IC50 [5, 10]: 7600 nM; IC50 [6]: 550 nM; IC50 [8]: 7000 nM
c1ccc(Cn2ncc3cc(Nc4ncnc5cnc(-n6cncn6)cc45)ccc32)cc1 [Example 21] | 54 nM |  |  |  |  | IC50 [4, 10]: 500 nM; IC50 [5, 10]: 18000 nM
CN(C)c1cc2c(Nc3ccc4c(S(=O)(=O)c5ccccc5)c[nH]c4c3)ncnc2cn1 [Example 19, Hydrochloride] | 540 nM | 6 nM | 130 nM |  |  | IC50 ([4]; Homo sapiens, HB4a, 96 h): 1200 nM; IC50 ([5]; Homo sapiens, HB4a, 96 h): 33000 nM
Cc1nn(Cc2ccccc2)c2ccc(Nc3ncnc4cnc(N(C)C)cc34)cc12 [Example 14, N4-(1-Benzyl-3-methyl-1H-indazol-5-yl)-N6,N6-dimethyl-pyrido[3,4-d]pyrimidine-4,6-diamine] | 830 nM | 430 nM | 1500 nM | 950 nM | 7900 nM | 
O=C(O)c1ccc(-c2cc3c(Nc4ccc5c(cnn5Cc5ccccc5)c4)ncnc3cn2)o1 [Example 35, 5-[4-(1-Benzyl-1H-indazol-5-ylamino)-pyrido-[3,4-d]pyrimidin-6-yl]-furan-2-carboxylic Acid Hydrochloride] | 1600 nM |  |  | 27000 nM | > 50000 nM | 
c1ccc(Cn2ncc3cc(Nc4ncnc5cnccc45)ccc32)cc1 [Example 4, (1-Benzyl-1H-indazol-5-yl)-(pyrido[3,4-d]pyrimidin-4-yl)-amine] |  | 120 nM | 1300 nM | 3900 nM | 13000 nM | 
c1ccc(Cn2ncc3cc(Nc4ncnc5cnc(-n6ccnn6)cc45)ccc32)cc1 [Example 23] | 31 nM |  |  |  |  | IC50 [4, 10]: 250 nM; IC50 [5, 10]: 22000 nM
CN(C)c1cc2c(Nc3ccc4c(ccn4S(=O)(=O)c4ccccc4)c3)ncnc2cn1 [Example 18, N4-(1-Benzenesulphonyl-1H-indol-5-yl)-N6,N6-dimethyl-pyrido[3,4-d]pyrimidine-4,6-diamine Hydrochloride] | 290 nM | 98 nM | 1700 nM | 21 nM | 19000 nM | IC50 [7]: 440 nM

Continued, in another order:

IC50 [1] | IC50 [2] | IC50 [3] | SMILES | IC50 [4, 9] | IC50 [5, 9] | further results
77 nM | 1 nM | 3 nM | CN(C)c1cc2c(Nc3ccc4c(cnn4Cc4ccccn4)c3)ncnc2cn1 [Example 12, N6,N6-Dimethyl-N4-(1-pyridin-2-ylmethyl-1H-indazol-5-yl)-pyrido[3,4-d]pyrimidine-4,6diamine Hydrochloride] | 170 nM | 32000 nM | 
 | 20 nM | 140 nM | c1ccc(Cn2ncc3cc(Nc4ncnc5cnc(N6CCCC6)cc45)ccc32)cc1 [Example 24, (1-Benzyl-1H-indazol-5-yl)-(6-pyrrolidin-1-yl-pyrido[3,4-d]pyrimidin-4-yl)-amine] | 810 nM | 50000 nM | IC50 ([6]; Homo sapiens, BT-474, 96 h): 460 nM; IC50 [7]: 900 nM
 | 27 nM | 48 nM | Clc1cc2c(Nc3ccc4c(cnn4Cc4ccccc4)c3)ncnc2cn1 [Example 1, (1-Benzyl-1H-indazol-5-yl)-(6-chloro-pyrido[3,4-d]pyrimidin-4-yl)-amine Hydrochloride] |  |  | 
370 nM | 50 nM | 2400 nM | CN(C)c1cc2c(Nc3ccc4c(cnn4Cc4cccnc4)c3)ncnc2cn1 [Example 13, N6,N6-Dimethyl-N4-(1-pyridin-3-ylmethyl-1H-indazol-5-yl)-pyrido[3,4-d]pyrimidine-4,6-diamine Hydrochloride] | 240 nM | 28000 nM | 
54 nM | 29 nM |  | CCN(C)c1cc2c(Nc3ccc4c(cnn4Cc4ccccc4)c3)ncnc2cn1 [Example 26, N4-(1-Benzyl-1H-indazol-5-yl)-N6-ethyl-N6-methyl-pyrido[3,4-d]pyrimidine-4.6-diamine] |  |  | IC50 [4, 10]: 150 nM; IC50 [5, 10]: 8900 nM
4 nM | 33 nM |  | c1ccc(Cn2ncc3cc(Nc4ncnc5cnc(-n6ccnc6)cc45)ccc32)cc1 [Example 20, (1-Benzyl-1H-indazol-5-yl)-(6-imidazol-1-yl-pyrido[3,4-d]pyrimidin-4-yl)-amine] | 470 nM | 14000 nM | 
 | 4 nM | 170 nM | O=C(CN1CCN(c2cc3c(Nc4ccc5c(cnn5Cc5ccccc5)c4)ncnc3cn2)CC1)N1CCOCC1 [Example 28, 2-(4-(4-(1-Benzyl-1H-indazol-5-ylamino)-pyrido[3,4-d]pyrimidin-6-yl)-piperazin-1-yl)-1-morpholin-4-yl-ethanone] | 590 nM | 28000 nM | 
 | 7 nM | 4 nM | CN(C)c1cc2c(Nc3ccc4c(cnn4Cc4ccccc4F)c3)ncnc2cn1 [Example 15, N4-(1-(2-Fluoro-benzyl)1H-indazol-5-yl)-N6,N6-dimethyl-pyrido[3,4-d]pyrimidine-4.6-diamine Hydrochloride] | 4 nM | 14000 nM | 
 | 2 nM | 190 nM | CC(C)NC(=O)CN1CCN(c2cc3c(Nc4ccc5c(cnn5Cc5ccccc5)c4)ncnc3cn2)CC1 [Example 27, 2-(4-(4-(1-Benzyl-1H-indazol-5-ylamino)-pyrido[3,4-d]pyrimidin-6-yl)-piperazin-1-yl)-N-isopropyl-acetamide] | 380 nM | 21000 nM | 
 | 11 nM | 150 nM | CN(C)c1cc2c(Nc3ccc4c(ccn4Cc4ccccc4)c3)ncnc2cn1 [Example 6, N4-(1-Benzyl-1H-indol-5-yl)-N6,N6-dimethyl-pyrido[3,4-d]pyrimidine-4,6-diamine] |  |  | IC50 [7]: 320 nM
 | 7 nM | 23 nM | CN(CCO)c1cc2c(Nc3ccc4c(cnn4Cc4ccccc4)c3)ncnc2cn1 [Example 3] | 140 nM | 33000 nM | IC50 ([8]; Homo sapiens, Calu-3, 96 h): 1800 nM
2 nM | 2 nM | 9600 nM | Cc1nnc(-c2cc3c(Nc4ccc5c(cnn5Cc5cccc(F)c5)c4)ncnc3cn2)o1 [Example 30, (1-(3-Fluoro-benzyl)-1H-indazol-5-yl)-(6-(5-methyl-1,3,4-oxadiazol-2-yl)-pyrido[3,4-d]pyrimidin-4-yl)-amine Hydrochloride] | 2900 nM | 26000 nM | 
